Data: the supplement of paper PMC10307832

Assays:
Assay in all cases: relative viability (nuclei count vs DMSO), 5 days (fraction); higher = more cells survive
[1] = tested on: NCI-H1793
How it was run: (§1)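 Lung cancer cell lines were seeded in 1536-well plates and dosed by pin tool the next day, with either a single drug or a fixed anchor-drug dose combined with five library-drug doses (not always all listed) spaced in √10 steps. Five days later, one step fixed the cells and stained their nuclei (final 0.05% Triton X-100, 1% formaldehyde, 1 ug/ml Hoechst), and nuclei were counted on 4× images. Relative viability is the nuclei count in treated wells divided by the count in vehicle wells, and each value is the median of duplicate plates.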

[2] = tested on: NCI-H2170
How it was run: as §1

[3] = tested on: HCC-78
How it was run: as §1

[4] = tested on: SW 900
How it was run: as §1

[5] = tested on: NCI-H2085
How it was run: as §1

[6] = tested on: COR-L 105
How it was run: as §1

[7] = tested on: NCI-H1944
How it was run: as §1

[8] = tested on: NCI-H1666
How it was run: as §1

[9] = tested on: EPLC-272H
How it was run: as §1

[10] = tested on: NCI-H358
How it was run: as §1

[11] = tested on: NCI-H1915
How it was run: as §1

[12] = tested on: SK-LU-1
How it was run: as §1

[13] = tested on: NCI-H460
How it was run: as §1

[14] = tested on: LC-2-ad
How it was run: as §1

[15] = tested on: A-427
How it was run: as §1

[16] = tested on: UMC-11
How it was run: as §1

[17] = tested on: HOP-62
How it was run: as §1

[18] = tested on: LXF-289
How it was run: as §1

[19] = tested on: HCC-366
How it was run: as §1

[20] = tested on: LU99A
How it was run: as §1

[21] = tested on: NCI-H2009
How it was run: as §1

SMILES: COc1cc2nccc(Oc3ccc(NC(=O)Nc4cc(C)on4)c(Cl)c3)c2cc1OC [Tivozanib] + Cc1cc(Nc2cc(N3CCN(C)CC3)nc(Sc3ccc(NC(=O)C4CC4)cc3)n2)n[nH]1 [Tozasertib] (partner 0.1 µM)
- relative viability ([1]; first compound 0.005 µM): 0.335
- relative viability ([1]; first compound 0.01581 µM): 0.45
- relative viability ([1]; first compound 0.05 µM): 0.392
- relative viability ([1]; first compound 0.1581 µM): 0.376
- relative viability ([1]; first compound 0.5 µM): 0.359
- relative viability ([2]; first compound 0.005 µM): 0.673
- relative viability ([2]; first compound 0.01581 µM): 0.685
- relative viability ([2]; first compound 0.05 µM): 0.801
- relative viability ([2]; first compound 0.1581 µM): 0.671
- relative viability ([2]; first compound 0.5 µM): 0.784
- relative viability ([3]; first compound 0.005 µM): 0.324
- relative viability ([3]; first compound 0.01581 µM): 0.472
- relative viability ([3]; first compound 0.05 µM): 0.347
- relative viability ([3]; first compound 0.1581 µM): 0.501
- relative viability ([3]; first compound 0.5 µM): 0.328
- relative viability ([4]; first compound 0.005 µM): 0.624
- relative viability ([4]; first compound 0.01581 µM): 0.626
- relative viability ([4]; first compound 0.05 µM): 0.606
- relative viability ([4]; first compound 0.1581 µM): 0.637
- relative viability ([4]; first compound 0.5 µM): 0.565
- relative viability ([5]; first compound 0.005 µM): 0.806
- relative viability ([5]; first compound 0.01581 µM): 0.699
- relative viability ([5]; first compound 0.05 µM): 0.905
- relative viability ([5]; first compound 0.1581 µM): 0.985
- relative viability ([5]; first compound 0.5 µM): 0.812
- relative viability ([6]; first compound 0.005 µM): 0.366
- relative viability ([6]; first compound 0.01581 µM): 0.371
- relative viability ([6]; first compound 0.05 µM): 0.406
- relative viability ([6]; first compound 0.1581 µM): 0.374
- relative viability ([6]; first compound 0.5 µM): 0.493
- relative viability ([7]; first compound 0.005 µM): 0.251
- relative viability ([7]; first compound 0.01581 µM): 0.245
- relative viability ([7]; first compound 0.05 µM): 0.257
- relative viability ([7]; first compound 0.1581 µM): 0.269
- relative viability ([7]; first compound 0.5 µM): 0.297
- relative viability ([8]; first compound 0.005 µM): 0.538
- relative viability ([8]; first compound 0.01581 µM): 0.605
- relative viability ([8]; first compound 0.05 µM): 0.668
- relative viability ([8]; first compound 0.1581 µM): 0.628
- relative viability ([8]; first compound 0.5 µM): 0.646
- relative viability ([9]; first compound 0.005 µM): 0.195
- relative viability ([9]; first compound 0.01581 µM): 0.255
- relative viability ([9]; first compound 0.05 µM): 0.387
- relative viability ([9]; first compound 0.1581 µM): 0.224
- relative viability ([9]; first compound 0.5 µM): 0.275
- relative viability ([10]; first compound 0.005 µM): 0.0936
- relative viability ([10]; first compound 0.01581 µM): 0.101
- relative viability ([10]; first compound 0.05 µM): 0.102
- relative viability ([10]; first compound 0.1581 µM): 0.102
- relative viability ([10]; first compound 0.5 µM): 0.108
- relative viability ([11]; first compound 0.005 µM): 0.4
- relative viability ([11]; first compound 0.01581 µM): 0.439
- relative viability ([11]; first compound 0.05 µM): 0.413
- relative viability ([11]; first compound 0.1581 µM): 0.511
- relative viability ([11]; first compound 0.5 µM): 0.5
- relative viability ([12]; first compound 0.005 µM): 0.332
- relative viability ([12]; first compound 0.01581 µM): 0.366
- relative viability ([12]; first compound 0.05 µM): 0.472
- relative viability ([12]; first compound 0.1581 µM): 0.357
- relative viability ([12]; first compound 0.5 µM): 0.335
- relative viability ([13]; first compound 0.005 µM): 0.394
- relative viability ([13]; first compound 0.01581 µM): 0.394
- relative viability ([13]; first compound 0.05 µM): 0.536
- relative viability ([13]; first compound 0.1581 µM): 0.554
- relative viability ([13]; first compound 0.5 µM): 0.446
- relative viability ([14]; first compound 0.005 µM): 0.408
- relative viability ([14]; first compound 0.01581 µM): 0.486
- relative viability ([14]; first compound 0.05 µM): 0.484
- relative viability ([14]; first compound 0.1581 µM): 0.399
- relative viability ([14]; first compound 0.5 µM): 0.408
- relative viability ([15]; first compound 0.005 µM): 0.179
- relative viability ([15]; first compound 0.01581 µM): 0.23
- relative viability ([15]; first compound 0.05 µM): 0.251
- relative viability ([15]; first compound 0.1581 µM): 0.281
- relative viability ([15]; first compound 0.5 µM): 0.207
- relative viability ([16]; first compound 0.005 µM): 0.208
- relative viability ([16]; first compound 0.01581 µM): 0.2
- relative viability ([16]; first compound 0.05 µM): 0.198
- relative viability ([16]; first compound 0.5 µM): 0.211
- relative viability ([17]; first compound 0.005 µM): 0.349
- relative viability ([17]; first compound 0.01581 µM): 0.384
- relative viability ([17]; first compound 0.05 µM): 0.422
- relative viability ([17]; first compound 0.1581 µM): 0.391
- relative viability ([17]; first compound 0.5 µM): 0.362
- relative viability ([18]; first compound 0.005 µM): 0.173
- relative viability ([18]; first compound 0.01581 µM): 0.201
- relative viability ([18]; first compound 0.05 µM): 0.228
- relative viability ([18]; first compound 0.1581 µM): 0.272
- relative viability ([18]; first compound 0.5 µM): 0.23
- relative viability ([19]; first compound 0.005 µM): 0.094
- relative viability ([19]; first compound 0.01581 µM): 0.115
- relative viability ([19]; first compound 0.05 µM): 0.156
- relative viability ([19]; first compound 0.1581 µM): 0.137
- relative viability ([19]; first compound 0.5 µM): 0.111
- relative viability ([20]; first compound 0.005 µM): 0.299
- relative viability ([20]; first compound 0.01581 µM): 0.279
- relative viability ([20]; first compound 0.05 µM): 0.307
- relative viability ([20]; first compound 0.1581 µM): 0.275
- relative viability ([20]; first compound 0.5 µM): 0.256
- relative viability ([21]; first compound 0.005 µM): 0.708
- relative viability ([21]; first compound 0.01581 µM): 0.738
- relative viability ([21]; first compound 0.05 µM): 0.733
- relative viability ([21]; first compound 0.1581 µM): 0.725
- relative viability ([21]; first compound 0.5 µM): 0.759
